From US8044069B2, “Compounds as calcium channel blockers” (Abbott Laboratories, priority 2008, dated 2011)

Assays:
Sprague Dawley rats = assay: Capsaicin induced secondary mechanical hyperalgesia model; type: in vivo; details: Rattus norvegicus, po, 1 h; 30 mg/kg p.o., 60 minutes before testing; secondary mechanical hyperalgesia 180 minutes after capsaicin; von Frey paw withdrawal threshold
Experimental: (ii) In Vivo Data—Capsaicin Induced Secondary Mechanical Hyperalgesia Model:
Sprague Dawley rats were briefly restrained, and capsaicin was administered at 10 μg in 10 μL of vehicle by intraplantar injection into the center of the right hind paw. Secondary mechanical hyperalgesia (SMH) was measured at the heel away from the site of injection 180 minutes following capsaicin exposure. Compounds and gabapentin (positive control), were administered p.o. 60 minutes before testing (2 hours after capsaicin) or i.p. 30 minutes before testing (2.5 hours after capsaicin). SMH was measured using calibrated von Frey filaments (Stoelting, Woodale, Ill.). Following the 1 hour habituation in the testing room, rats were moved to individual plexiglass chambers that sit on top of a wire mesh to allow for access for stimulation of the plantar surface of the hind paws. Rats were allowed to acclimate to the new chambers for 15 minutes before the onset of testing. The paw withdrawal threshold was determined by increasing and decreasing stimulus intensity (force: g) and calculated using Dixon's up-down method (Chaplan, S. R.; Bach, F. W.; Pogrel, J. W.; Chung, J. M.; Yaksh, T. L.; Quantitative assessment of tactile allodynia in the rat paw. J. Neuroscience Methods 1994, 53(1), 55-63). The filaments (maximum force of 15.0 g) were held in place for 8 seconds or until there was a withdrawal response from the mechanical stimulation.

human Cav2.2 = human Cav2.2 (Homo sapiens, UniProt Q00975); assay: Assessment of calcium channel activity using FLIPR (Ca2+ influx in IMR32 cells); type: cell-based; details: IMR32 cells endogenously expressing human Cav2.2; 60 minute pre-incubation; 2 μM nifedipine; depolarized with 80 mM KCl, 5 mM CaCl2
human Cav2.2, sequence (Q00975 whole entry): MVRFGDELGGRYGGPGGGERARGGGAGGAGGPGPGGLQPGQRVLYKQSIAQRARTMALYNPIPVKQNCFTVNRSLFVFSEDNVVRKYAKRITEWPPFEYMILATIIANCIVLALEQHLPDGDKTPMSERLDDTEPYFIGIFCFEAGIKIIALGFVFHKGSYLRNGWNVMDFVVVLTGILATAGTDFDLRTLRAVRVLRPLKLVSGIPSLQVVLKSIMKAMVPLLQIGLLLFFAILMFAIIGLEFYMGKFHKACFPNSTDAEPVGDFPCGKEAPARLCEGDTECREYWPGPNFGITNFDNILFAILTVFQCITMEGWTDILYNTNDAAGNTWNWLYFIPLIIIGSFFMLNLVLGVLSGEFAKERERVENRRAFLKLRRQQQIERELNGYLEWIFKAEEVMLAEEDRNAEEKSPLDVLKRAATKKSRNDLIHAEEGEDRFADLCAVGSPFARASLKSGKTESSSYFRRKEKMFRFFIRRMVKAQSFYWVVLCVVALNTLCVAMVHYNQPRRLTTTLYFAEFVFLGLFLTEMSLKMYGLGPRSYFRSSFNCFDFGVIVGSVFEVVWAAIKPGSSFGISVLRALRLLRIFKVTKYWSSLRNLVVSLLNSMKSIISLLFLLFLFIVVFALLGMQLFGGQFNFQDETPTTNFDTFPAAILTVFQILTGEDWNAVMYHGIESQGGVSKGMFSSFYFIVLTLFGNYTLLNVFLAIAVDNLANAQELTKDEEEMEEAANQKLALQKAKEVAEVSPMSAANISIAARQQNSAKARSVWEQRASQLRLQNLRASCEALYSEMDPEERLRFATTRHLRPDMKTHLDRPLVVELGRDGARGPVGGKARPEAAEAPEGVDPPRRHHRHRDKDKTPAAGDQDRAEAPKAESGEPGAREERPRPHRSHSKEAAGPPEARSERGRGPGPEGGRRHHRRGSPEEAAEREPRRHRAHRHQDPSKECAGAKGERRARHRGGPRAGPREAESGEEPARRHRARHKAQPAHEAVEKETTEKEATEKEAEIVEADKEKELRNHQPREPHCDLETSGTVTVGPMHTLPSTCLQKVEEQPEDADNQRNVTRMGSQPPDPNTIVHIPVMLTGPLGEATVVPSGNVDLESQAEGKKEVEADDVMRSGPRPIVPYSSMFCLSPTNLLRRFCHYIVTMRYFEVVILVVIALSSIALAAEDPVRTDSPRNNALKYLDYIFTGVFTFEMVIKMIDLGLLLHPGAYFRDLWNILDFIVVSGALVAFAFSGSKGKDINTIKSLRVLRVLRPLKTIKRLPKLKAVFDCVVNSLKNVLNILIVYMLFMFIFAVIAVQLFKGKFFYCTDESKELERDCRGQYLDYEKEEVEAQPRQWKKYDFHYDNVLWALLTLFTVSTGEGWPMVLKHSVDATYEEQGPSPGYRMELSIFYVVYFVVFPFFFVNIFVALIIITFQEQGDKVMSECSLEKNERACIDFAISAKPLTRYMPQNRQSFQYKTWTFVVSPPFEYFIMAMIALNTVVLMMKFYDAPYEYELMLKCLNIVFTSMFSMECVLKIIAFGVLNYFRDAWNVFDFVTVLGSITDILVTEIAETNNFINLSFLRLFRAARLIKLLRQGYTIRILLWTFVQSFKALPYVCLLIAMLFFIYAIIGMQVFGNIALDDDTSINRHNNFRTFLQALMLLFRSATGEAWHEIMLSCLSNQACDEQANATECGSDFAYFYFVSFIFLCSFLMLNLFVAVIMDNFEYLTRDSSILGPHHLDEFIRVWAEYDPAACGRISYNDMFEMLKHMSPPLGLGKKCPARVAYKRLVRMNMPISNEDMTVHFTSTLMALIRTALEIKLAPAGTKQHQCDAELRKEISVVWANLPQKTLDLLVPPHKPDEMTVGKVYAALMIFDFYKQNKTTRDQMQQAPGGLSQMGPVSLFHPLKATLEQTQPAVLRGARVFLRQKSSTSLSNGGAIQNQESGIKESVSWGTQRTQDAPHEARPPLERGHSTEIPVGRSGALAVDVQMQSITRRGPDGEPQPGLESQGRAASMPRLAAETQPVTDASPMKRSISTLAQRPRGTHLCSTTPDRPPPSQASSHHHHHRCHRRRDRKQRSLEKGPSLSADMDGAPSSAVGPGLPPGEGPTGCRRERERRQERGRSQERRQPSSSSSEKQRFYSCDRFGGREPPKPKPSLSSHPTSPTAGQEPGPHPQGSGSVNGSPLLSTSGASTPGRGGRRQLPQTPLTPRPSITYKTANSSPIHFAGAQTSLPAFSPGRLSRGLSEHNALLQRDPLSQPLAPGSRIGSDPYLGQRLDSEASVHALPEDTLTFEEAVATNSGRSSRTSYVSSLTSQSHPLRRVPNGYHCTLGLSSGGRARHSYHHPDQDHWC
human Cav2.2, sequence (P54289 25-951 partner limits assumed): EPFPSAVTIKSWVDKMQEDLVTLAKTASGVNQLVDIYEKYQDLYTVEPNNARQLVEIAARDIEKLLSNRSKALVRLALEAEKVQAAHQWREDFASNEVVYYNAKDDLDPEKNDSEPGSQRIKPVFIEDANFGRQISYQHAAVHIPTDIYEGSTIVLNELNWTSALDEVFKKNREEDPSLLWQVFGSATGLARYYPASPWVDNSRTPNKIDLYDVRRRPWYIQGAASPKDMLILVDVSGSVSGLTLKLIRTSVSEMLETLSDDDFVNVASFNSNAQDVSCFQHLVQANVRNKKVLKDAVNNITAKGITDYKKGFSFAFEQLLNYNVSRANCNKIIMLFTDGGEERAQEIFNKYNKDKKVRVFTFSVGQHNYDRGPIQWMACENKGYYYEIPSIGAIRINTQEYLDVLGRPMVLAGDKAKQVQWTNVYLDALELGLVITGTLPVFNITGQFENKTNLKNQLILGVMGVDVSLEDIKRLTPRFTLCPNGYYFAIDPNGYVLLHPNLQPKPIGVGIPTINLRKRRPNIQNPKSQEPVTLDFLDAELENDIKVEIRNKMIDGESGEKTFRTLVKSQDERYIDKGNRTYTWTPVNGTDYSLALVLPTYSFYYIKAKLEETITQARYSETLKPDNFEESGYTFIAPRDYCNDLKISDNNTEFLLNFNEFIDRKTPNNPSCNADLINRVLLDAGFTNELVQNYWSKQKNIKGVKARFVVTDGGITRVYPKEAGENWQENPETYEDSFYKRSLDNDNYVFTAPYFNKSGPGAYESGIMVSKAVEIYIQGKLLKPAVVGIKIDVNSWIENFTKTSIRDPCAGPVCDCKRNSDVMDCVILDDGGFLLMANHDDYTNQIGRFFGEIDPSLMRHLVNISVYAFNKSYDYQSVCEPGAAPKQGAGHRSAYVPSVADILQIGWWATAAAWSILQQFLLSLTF
human Cav2.2, sequence (P54289 952-1103 partner limits assumed): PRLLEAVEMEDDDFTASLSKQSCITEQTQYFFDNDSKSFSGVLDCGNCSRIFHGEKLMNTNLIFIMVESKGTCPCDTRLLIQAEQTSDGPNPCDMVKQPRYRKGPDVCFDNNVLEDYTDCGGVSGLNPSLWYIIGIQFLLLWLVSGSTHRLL
human Cav2.2, sequence (P54284 whole entry partner): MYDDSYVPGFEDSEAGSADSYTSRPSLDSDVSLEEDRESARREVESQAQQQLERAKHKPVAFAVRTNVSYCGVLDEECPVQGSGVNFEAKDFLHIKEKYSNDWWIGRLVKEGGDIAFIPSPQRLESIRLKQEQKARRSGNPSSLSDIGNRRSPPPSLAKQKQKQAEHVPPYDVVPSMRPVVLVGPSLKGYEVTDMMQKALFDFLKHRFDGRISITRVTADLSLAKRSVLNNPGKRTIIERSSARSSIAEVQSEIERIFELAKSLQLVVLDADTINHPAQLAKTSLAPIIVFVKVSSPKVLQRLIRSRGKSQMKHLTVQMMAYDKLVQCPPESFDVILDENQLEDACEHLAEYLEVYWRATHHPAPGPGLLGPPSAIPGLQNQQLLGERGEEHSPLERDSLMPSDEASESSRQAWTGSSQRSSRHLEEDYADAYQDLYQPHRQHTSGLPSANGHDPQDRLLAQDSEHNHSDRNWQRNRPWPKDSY
Procedure, shortened: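 FLIPR measured Ca2+ influx triggered by 80 mM KCl depolarization together with a step to 5 mM external CaCl2. Percent inhibition relative to uninhibited activity was fitted sigmoidally for IC50.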

Row | Structure (SMILES) | inhibition in vivo at 30 mg/kg (Sprague Dawley rats) | IC50 (human Cav2.2)
1 | O=C(CN1CCCC(c2ccccc2)C1=O)N1CCN(C(c2ccccc2)c2ccccc2)CC1 (stereo not drawn) [Example 91, 1-[2-(4-benzhydrylpiperazin-1-yl)-2-oxoethyl]-3-phenylpiperidin-2-one] | 58% | 2180 nM
2 | O=C(CN1CCC(c2ccccc2)(c2ccccc2)C1=O)N1CCC(c2ccccc2)(c2ccccc2)C1 [Example 17, 1-[2-(3,3-diphenylpyrrolidin-1-yl)-2-oxoethyl]-3,3-diphenylpyrrolidin-2-one] | 50% | 780 nM
3 | O=C(CN1CCC(c2ccccc2)(c2ccccc2)C1=O)N1CCN(C(c2ccc(F)cc2)c2ccc(F)cc2)CC1 [Example 45, 1-(2-{4-[bis(4-fluorophenyl)methyl]piperazin-1-yl}-2-oxoethyl)-3,3-diphenylpyrrolidin-2-one] | 51% | 430 nM
4 | O=C(CN1CCC(c2ccccc2)(c2ccccc2)C1=O)N1CCN(C(c2ccccc2)c2ccccc2)C(=O)C1 [Example 28, 1-benzhydryl-4-[(2-oxo-3,3-diphenylpyrrolidin-1-yl)acetyl]piperazin-2-one] | 60% | 1090 nM
5 | O=C(CN1CCC(c2ccccc2)(c2ccccc2)C1=O)NC1CCN(Cc2cccc(C(F)(F)F)c2)CC1 [Example 41, 2-(2-oxo-3,3-diphenylpyrrolidin-1-yl)-N-{1-[3-(trifluoromethyl)benzyl]piperidin-4-yl}acetamide] | 75% | 780 nM
6 | O=C(CN1CCCC(c2ccccc2)(c2ccccc2)C1=O)N1CCN(C(c2ccccc2)c2ccccc2)CC1 [Example 68, 1-[2-(4-benzhydrylpiperazin-1-yl)-2-oxoethyl]-3,3-diphenylpiperidin-2-one] | 71% | 1380 nM
7 | O=C(CN1CCC(c2ccccc2)(c2ccccc2)C1=O)N1CCN(C(c2ccccc2)c2ccccc2)CC1 [Example 1, 1-[2-(4-benzhydrylpiperazin-1-yl)-2-oxoethyl]-3,3-diphenylpyrrolidin-2-one] | 61% | 1100 nM
8 | O=C(CN1CCCC(c2ccccc2)(c2ccccc2)C1=O)N1CCN(Cc2cccc(C(F)(F)F)c2)CC1 [Example 79, 1-(2-oxo-2-{4-[3-(trifluoromethyl)benzyl]piperazin-1-yl}ethyl)-3,3-diphenylpiperidin-2-one] | 49% | 930 nM
9 | O=C(CN1CCC(c2ccc(F)cc2)(c2ccc(F)cc2)C1=O)N1CCN(C(c2ccccc2)c2ccccc2)CC1 [Example 58, 1-[2-(4-benzhydrylpiperazin-1-yl)-2-oxoethyl]-3,3-bis(4-fluorophenyl)pyrrolidin-2-one] | 97% | 830 nM
10 | O=C(CN1CCC(c2ccc(F)cc2)C1=O)N1Cc2ccc(C(F)(F)F)cc2C1 (single isomer, unassigned; (+)) [Example 264, (+)-3-(4-fluorophenyl)-1-{2-oxo-2-[5-(trifluoromethyl)-1,3-dihydro-2H-isoindol-2-yl]ethyl}pyrrolidin-2-one] | 49% | 14100 nM
11 | O=C1N(Cc2nc(-c3ccc(Cl)cc3)no2)CCCC1(c1ccccc1)c1ccccc1 [Example 170, 1-{[3-(4-chlorophenyl)-1,2,4-oxadiazol-5-yl]methyl}-3,3-diphenylpiperidin-2-one] |  | 6700 nM
12 | COc1ccccc1N1CCN(CCCN2CCCC(c3ccc(F)cc3)(c3ccc(F)cc3)C2=O)CC1 [Example 138, 3,3-bis(4-fluorophenyl)-1-{3-[4-(2-methoxyphenyl)piperazin-1-yl]propyl}piperidin-2-one] |  | 1420 nM
13 | O=C(CN1CCC(c2ccccc2)(c2ccccc2)C1=O)Nc1ncc(C(F)(F)F)cc1Cl [Example 249, N-[3-chloro-5-(trifluoromethyl)pyridin-2-yl]-2-(2-oxo-3,3-diphenylpyrrolidin-1-yl)acetamide] |  | 6480 nM
14 | O=C(CN1CCCC(c2ccccc2)(c2ccccc2)C1=O)N1CCC(c2ccccc2)(c2ccccc2)CC1 [Example 72, 1-[2-(4,4-diphenylpiperidin-1-yl)-2-oxoethyl]-3,3-diphenylpiperidin-2-one] | 78% | 660 nM
15 | O=C(CN1CCC(c2ccccc2)(c2ccccc2)C1=O)N1CCN(Cc2cccc(C(F)(F)F)c2)C(=O)C1 [Example 29, 4-[(2-oxo-3,3-diphenylpyrrolidin-1-yl)acetyl]-1-[3-(trifluoromethyl)benzyl]piperazin-2-one] |  | 1140 nM
16 | O=C(CN1CCC(c2ccccc2)(c2ccccc2)C1=O)NC1Cc2ccccc2C1 [Example 22, N-2,3-dihydro-1H-inden-2-yl-2-(2-oxo-3,3-diphenylpyrrolidin-1-yl)acetamide] |  | 3960 nM
17 | COc1cc(CN2CCN(CCN3CCC(c4ccc(F)cc4)(c4ccc(F)cc4)C3=O)CC2)cc(OC)c1 [Example 63, 1-{2-[4-(3,5-dimethoxybenzyl)piperazin-1-yl]ethyl}-3,3-bis(4-fluorophenyl)pyrrolidin-2-one] |  | 1650 nM
18 | O=C(CN1CCCC(c2ccccc2)(c2ccccc2)C1=O)N1CCC(C(O)(c2ccc(F)cc2)c2ccc(F)cc2)CC1 [Example 272, 1-(2-{4-[bis(4-fluorophenyl)(hydroxy)methyl]piperidin-1-yl}-2-oxoethyl)-3,3-diphenylpiperidin-2-one] |  | 1960 nM
19 | O=C(CN1CCCC(c2ccccc2)(c2ccccc2)C1=O)N1CCCCC1c1ccc(F)cc1 (stereo not drawn) [Example 74, 1-{2-[2-(4-fluorophenyl)piperidin-1-yl]-2-oxoethyl}-3,3-diphenylpiperidin-2-one] |  | 2680 nM
20 | O=C(CN1CCCC(c2ccccc2)(c2ccccc2)C1=O)N1CCC(=C(c2ccc(F)cc2)c2ccc(F)cc2)CC1 [Example 171, 1-(2-{4-[bis(4-fluorophenyl)methylene]piperidin-1-yl}-2-oxoethyl)-3,3-diphenylpiperidin-2-one] |  | 2450 nM
21 | COc1ccc(CCN(C)CCN2CCCC(c3cccc(OC)c3)(C(C)C)C2=O)cc1 (stereo not drawn) [Example 130, 3-isopropyl-3-(3-methoxyphenyl)-1-{2-[[2-(4-methoxyphenyl)ethyl](methyl)amino]ethyl}piperidin-2-one] |  | 1130 nM
22 | O=C(CN1CCC(c2ccc(F)cc2)(c2ccc(F)cc2)C1=O)Nc1cccc(C(F)(F)F)n1 [Example 226, 2-[3,3-bis(4-fluorophenyl)-2-oxopyrrolidin-1-yl]-N-[6-(trifluoromethyl)pyridin-2-yl]acetamide] |  | 2460 nM
23 | O=C1N(Cc2nc(-c3ccc(Cl)cc3)no2)CCC1(c1ccccc1)c1ccccc1 [Example 193, 1-{[3-(4-chlorophenyl)-1,2,4-oxadiazol-5-yl]methyl}-3,3-diphenylpyrrolidin-2-one] |  | 4670 nM
24 | O=C(CN1CCC(c2ccccc2)(c2ccccc2)C1=O)N1CCC(c2ccccc2)C1 (stereo not drawn) [Example 21, 1-[2-oxo-2-(3-phenylpyrrolidin-1-yl)ethyl]-3,3-diphenylpyrrolidin-2-one] |  | 1830 nM
25 | COc1ccc(CC2(C)CN(C(=O)CN3CCC(c4ccccc4)(c4ccccc4)C3=O)CCN2)cc1OC (stereo not drawn) [Example 167, 1-{2-[3-(3,4-dimethoxybenzyl)-3-methylpiperazin-1-yl]-2-oxoethyl}-3,3-diphenylpyrrolidin-2-one] |  | 2020 nM
26 | O=C1N(Cc2nc(-c3ccc(Cl)nc3)no2)CCC1(c1ccccc1)c1ccccc1 [Example 214, 1-{[3-(6-chloropyridin-3-yl)-1,2,4-oxadiazol-5-yl]methyl}-3,3-diphenylpyrrolidin-2-one] |  | 2780 nM
27 | O=C1N(CCN2CCN(c3cccc(C(F)(F)F)c3)CC2)CCCC1(c1ccc(F)cc1)c1ccc(F)cc1 [Example 139, 3,3-bis(4-fluorophenyl)-1-(2-{4-[3-(trifluoromethyl)phenyl]piperazin-1-yl}ethyl)piperidin-2-one] |  | 4770 nM
28 | COc1ccc(CCN(C)C(=O)CN2CCCC(c3ccccc3)(c3ccccc3)C2=O)cc1OC [Example 143, N-[2-(3,4-dimethoxyphenyl)ethyl]-N-methyl-2-(2-oxo-3,3-diphenylpiperidin-1-yl)acetamide] |  | 11600 nM
